The target in the assay is T1, human B2 receptor (Homo sapiens, UniProt P30411).
T1 construct: human B2 receptor expressed in human fibroblasts W138; endogenous in cells; host or cells: human fibroblasts W138 (WI-38)
T1 sequence (P30411 1-391): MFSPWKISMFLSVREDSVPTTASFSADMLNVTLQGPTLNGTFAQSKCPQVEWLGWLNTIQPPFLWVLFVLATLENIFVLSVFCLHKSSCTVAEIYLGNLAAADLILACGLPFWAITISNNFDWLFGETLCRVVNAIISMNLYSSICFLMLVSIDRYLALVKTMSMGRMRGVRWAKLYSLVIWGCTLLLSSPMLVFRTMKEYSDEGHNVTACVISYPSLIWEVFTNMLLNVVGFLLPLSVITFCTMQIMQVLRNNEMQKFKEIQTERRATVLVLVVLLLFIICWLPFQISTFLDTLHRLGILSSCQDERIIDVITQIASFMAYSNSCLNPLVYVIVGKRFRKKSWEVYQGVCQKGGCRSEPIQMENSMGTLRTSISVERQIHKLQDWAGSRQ
Put plainly: binding to the human B2 receptor expressed in human fibroblasts W138. An excerpt:
In the following the binding values are reported expressed as pKi.

[1] abbreviates: human B2 receptor expressed in human fibroblasts W138, read-out: pKi (converted).
[2] abbreviates: human B2 receptor expressed in human fibroblasts W138.

In general, pKi refers to −log10 of the Ki, conventionally taken in molar units.

Counter-ions that a name gives are not always drawn. Like-named read-outs stand apart in the source and are kept apart here.

For `Cc1cc(C)c2cccc(OCc3c(Cl)ccc(S(=O)(=O)NC4(C(=O)N5CCN(C(=O)C[C@@H](O)C[N+](C)(C)C)CC5)CCCC4)c3Cl)c2n1` [Example 84, N-{1-[4-(3(R)-Hydroxy-4-trimethylammonium-butanoyl)-piperazine-1-carbonyl]-cyclopentyl}-2,4-dichloro-3-(2,4-dimethyl-quinolin-8-yloxymethyl)-benzenesulfonamide bis trifluoroacetate], the Ki under setting [1] was 0.631 nM. For the compound `Cc1cc(C)c2cccc(OCc3c(Cl)ccc(S(=O)(=O)NC4(C(=O)N5CCN(C(=O)[C@H](CCCCN)[N+](C)(C)C)CC5)CCCC4)c3Cl)c2n1` [Example 90, N-[1-[4-(2-(S)-Trimethylammonium-6-amino-hexanoyl)-piperazin-1-yl]-cyclopentyl]-2,4-dichloro-3-(2,4-dimethyl-quinolin-8-yloxymethyl)-benzenesulfonamide tris trifluoroacetate], the negative-log Ki (pKi) under setting [2] is 9.9. In turn, `Cc1ccc2cccc(OCc3c(Cl)ccc(S(=O)(=O)NC(C)(C)C(=O)N4CCN(C(=N)NCCCN)CC4)c3Cl)c2n1` [Example 31, N-(3-Amino-propyl)-4-{2-[2,4-dichloro-3-(2-methyl-quinolin-8-yloxymethyl)-benzenesulfonylamino]-2-methyl-propionyl}-piperazine-1-carboxamidine tris trifluoroacetate] gave a Ki of 0.398 nM. With `Cc1cc(C)c2cccc(OCc3c(Cl)ccc(S(=O)(=O)NC4(C(=O)N5CCN(C(=O)[C@H](N)CCCCNC(=N)N)CC5)CCCC4)c3Cl)c2n1` [Example 64, N-[1-[4-(2-(R)-Amino-6-guanidino-hexanoyl)-piperazine-1-carbonyl]-cyclopentyl]-2,4-dichloro-3-(2,4-dimethyl-quinolin-8-yloxymethyl)-benzenesulfonamide tris trifluoroacetate], the Ki was 0.631 nM. `CCN=C(NCC)NCCC[C@H](N)C(=O)N1CCN(C(=O)C(C)(C)NS(=O)(=O)c2ccc(Cl)c(COc3cccc4ccc(C)nc34)c2Cl)CC1` [Example 41] had a Ki of 0.501 nM. Under setting [2], `Cc1cc(C)c2cccc(OCc3c(Cl)ccc(S(=O)(=O)NC4(C(=O)N5CCN(C(=O)CCC[N+](C)(C)C)CC5)CCCC4)c3Cl)c2n1` [Example 83, N-{1-[4-(4-Trimethylammonium-butanoyl)-piperazine-1-carbonyl]-cyclopentyl}-2,4-dichloro-3-(2,4-dimethyl-quinolin-8-yloxymethyl)-benzenesulfonamide bis trifluoroacetate] gave a negative-log Ki (pKi) of 9.4. `Cc1cc(C)c2cccc(OCc3c(Cl)ccc(S(=O)(=O)NC(C)(C)C(=O)N4CCN(C(=O)[C@@H](N)CCCNC(=N)N)CC4)c3Cl)c2n1` [Example 48, N-[2-[4-(2-(S)-Amino-5-guanidino-pentanoyl)-piperazin-1-yl]-1,1-dimethyl-2-oxo-ethyl]-2,4-dichloro-3-(2,4-dimethyl-quinolin-8-yloxymethyl)-benzenesulfonamide] had a Ki of 0.631 nM. For `Cc1cc(C)c2cccc(OCc3c(Cl)ccc(S(=O)(=O)NC4(C(=O)N5CCN(C(=O)C[N+](C)(C)C)CC5)CCCC4)c3Cl)c2n1` [Example 82, N-{1-[4-(2-Trimethylammonium-acetyl)-piperazine-1-carbonyl]-cyclopentyl}-2,4-dichloro-3-(2,4-dimethyl-quinolin-8-yloxymethyl)-benzenesulfonamide bis trifluoroacetate], the Ki under setting [1] was 0.631 nM.

On to `Cc1cc(C)c2cccc(OCc3c(Cl)ccc(S(=O)(=O)NC4(C(=O)N5CCN(C(=N)NCCCCCCN)CC5)CCCC4)c3Cl)c2n1` [Example 95, N-(6-Amino-hexyl)-4-{1-[2,4-dichloro-3-(2,4-dimethyl-quinolin-8-yloxymethyl)-benzenesulfonylamino]-cyclopentanecarbonyl}-piperazine-1-carboxamidine bis trifluoroacetate], for which the Ki is 0.501 nM. With `Cc1cc(C)c2cccc(OCc3c(Cl)ccc(S(=O)(=O)NC4(C(=O)N5CCN(C(=O)[C@@H](N)CC6CCNCC6)CC5)CCCC4)c3Cl)c2n1` [Example 81, N-{1-[4-(2-(S)Amino-3-piperidin-4-yl-propionyl)-piperazine-1-carbonyl]-cyclopentyl}-2,4-dichloro-3-(2,4-dimethyl-quinolin-8-yloxymethyl)-benzenesulfonamide tris trifluoroacetate], the Ki under setting [1] is 0.631 nM. Compound “2,4-Dichloro-3-(2-methyl-quinolin-8-yloxymethyl)-benzenesulfinic acid (2-{4-[2-R-amino-5-(N′,N″-diethyl-guanidino)-pentanoyl]-piperazin-1-yl}-1,1-dimethyl-2-oxo-ethyl)-amide [Example 42]” had a negative logarithm of the Ki (pKi) under setting [2] of 9.4. Consider `Cc1cc(C)c2cccc(OCc3c(Cl)ccc(S(=O)(=O)NC4(C(=O)N5CCN(C(=O)C[C@@H](N)CCC[N+](C)(C)C)CC5)CCCC4)c3Cl)c2n1.Cc1cc(C)c2cccc(OCc3c(Cl)ccc(S(=O)(=O)NC4(C(=O)N5CCN(C(=O)C[C@@H](N)CCC[N+](C)(C)C)CC5)CCCC4)c3Cl)c2n1.O=C([O-])C(F)(F)F.O=C([O-])C(F)(F)F` [Example 107, [4-(S)-Amino-6-(4-{1-[2,4-dichloro-3-(2,4-dimethyl-quinolin-8-yloxymethyl)-benzenesulfonylamino]-cyclopentanecarbonyl}-piperazin-1-yl)-6-oxohexyl]-trimethylammonium bis trifluoroacetate], for which, under setting [2], the pKi is 9.7.

On to “2,4-Dichloro-3-(2-methyl-quinolin-8-yloxymethyl)-benzenesulfinic acid {2-[4-(2-guanidino-ethyl)-piperazin-1-yl]-1,1-dimethyl-2-oxo-ethyl}-amide [Example 40]”, for which the pKi under setting [2] is given as 9.7. For the compound `Cc1cc(C)c2cccc(OCc3c(Cl)ccc(S(=O)(=O)N[C@H](C)C(C)C(=O)N4CCN(C(=O)C[C@H](CCCNC(=N)N)NC(=N)N)CC4)c3Cl)c2n1.O=C(O)C(F)(F)F.O=C(O)C(F)(F)F.O=C(O)C(F)(F)F` (stereo partly shown) [Example 73], the pKi under setting [2] worked out at 9.2. Consider `Cc1ccc2cccc(OCc3c(Cl)ccc(S(=O)(=O)NC(C)(C)C(=O)N4CCN(C(=O)C[C@@H](N)CCCCN(C)C)CC4)c3Cl)c2n1` [Example 30, N-{2-[4-(3-(S)-Amino-7-dimethylamino-heptanoyl)-piperazin-1-yl]-1,1-dimethyl-2-oxo-ethyl}-2,4-dichloro-3-(2-methyl-8-quinolinoxymethyl)-benzenesulfonamide tris trifluoroacetate], for which the Ki under setting [1] was 0.794 nM. As to `CC[C@@](C)(NS(=O)(=O)c1ccc(Cl)c(COc2cccc3c(C)cc(C)nc23)c1Cl)C(=O)N1CCN(C(=O)C[C@@H](N)CCCN(C)C)CC1` [Example 74, (R)—N-[4-(3-(S)-Amino-6-dimethylamino-hexanoyl)-piperazine-1-carbonyl]-1-methyl-propyl]-2,4-dichloro-3-(2,4-dimethyl-quinolin-8-yloxymethyl)-benzenesulfonamide tris trifluoroacetate], the Ki under setting [1] was 0.794 nM.

Compound `Cc1cc(C)c2cccc(OCc3c(Cl)ccc(S(=O)(=O)NC4(C(=O)N5CCC(C[N+](C)(C)CCCCC[N+](C)(C)C)CC5)CCCC4)c3Cl)c2n1` [Example 86, {5-[(1-{1-[2,4-Dichloro-3-(2,4-dimethyl-quinolin-8-yloxymethyl)-benzensulfonylamino]-cyclopentanecarbonyl}-piperidin-4-ylmethyl)-dimethyl-ammonium]-pentyl}-trimethyl-ammonium tris trifluoroacetate] showed a Ki of 0.398 nM.

As for `Cc1cc(C)c2cccc(OCc3c(Cl)ccc(S(=O)(=O)NC4(C(=O)N5CCN(CCN6CCNCC6)CC5)CCCC4)c3Cl)c2n1` [Example 100, 2,4-Dichloro-3-(2,4-dimethyl-quinolin-8-yloxymethyl)-N-{1-[4-(2-piperazin-1-yl-ethyl)-piperazine-1-carbonyl]-cyclopentyl}-benzenesulfonamide tetra trifluoroacetate], the Ki under setting [1] was 0.398 nM. `Cc1ccc2cccc(OCc3c(Cl)ccc(S(=O)(=O)NC(C)(C)C(=O)N4CCN(C(=O)CC5CCNCC5)CC4)c3Cl)c2n1` [Example 25, N-{2-[4-2-(Piperidin-4-yl-acetyl)-piperazin-1-yl]-1,1-dimethyl-2-oxo-ethyl}-2,4-dichloro-3-(2-methyl-8-quinolinoxymethyl)-benzenesulfonamide bis trifluoroacetate] had a Ki of 0.537 nM.

(Values after patent US7491825B2, “Basic non-peptide bradykinin antagonists and pharmaceutical compositions therefrom” (Menarini Ricerche S.p.A., priority 2002, dated 2009).)
